The text below walks through data of US12329727B2, “Use of salmeterol as an anti-coronaviral agent” (priority 2020, dated 2025).

The test system of one experiment is MERS-pseudovirus. The format is cell-based, MERS-COV; Huh7 cells.
A further experiment relates to SARS-CoV-2 pseudovirus. It counts as cell-based, SARS-CoV-2; HEK293 cells expressing ACE2.
For the next experiment, the system named is ciliary beat frequency. To be noted: cited from earlier work.
A further experiment has as its system mast cell degranulation. To be noted: human lung; cited from earlier work.
In experiment [1] the test system is NAADP-evoked Ca2+ release (TPC activity). It counts as biochemical, sea urchin.

Like-named read-outs stand apart in the source and are kept apart here.

Turning to `OCc1cc(C(O)CNCCCCCCOCCCCc2ccccc2)ccc1O` (racemic) [salmeterol, (RS)-2-(hydroxymethyl)-4-{1-hydroxy-2-[6-(4-phenylbutoxy)hexylamino]ethyl}phenol], in the experiment with MERS-pseudovirus, the “inhibition of MERS-COV infectivity in a pseudovirus translocation assay” value is “potent and penetrant”. Besides, the “inhibition of SARS-CoV-2 pseudovirus infectivity” value with SARS-CoV-2 pseudovirus (10 μM) is listed as “pronounced inhibition”. The ciliary beat frequency result in the experiment with ciliary beat frequency was “rapid and prolonged increase”. For the same compound, in the experiment on mast cell degranulation, the mast cell degranulation result is “potent and long-lasting inhibition”. Besides, in experiment [1], the “inhibition of TPC activity” value is given as “able to inhibit” and the “rank for TPC inhibition (amplitude of NAADP-evoked Ca2+ release, rank #1 = greatest inhibition)” value is recorded as 16/1534.

On to `NCCOB(c1ccccc1)c1ccccc1` [2-APB], for which the “inhibition of SARS-CoV-2 pseudovirus infectivity” value with SARS-CoV-2 pseudovirus (10 μM) was “no effect”.

In the case of `CC(=O)OCOC(=O)CN(CC(=O)OCOC(C)=O)c1ccccc1OCCOc1ccccc1N(CC(=O)OCOC(C)=O)CC(=O)OCOC(C)=O` [BAPTA-AM], in the experiment with SARS-CoV-2 pseudovirus, the “inhibition of SARS-CoV-2 pseudovirus infectivity” value is on record as “nearly complete inhibition”.

For ryanodine, the “inhibition of SARS-CoV-2 pseudovirus infectivity” value in the experiment with SARS-CoV-2 pseudovirus (10 μM) is recorded as “no effect”.

On to xestospongin, for which the “inhibition of SARS-CoV-2 pseudovirus infectivity” value with SARS-CoV-2 pseudovirus (10 μM) was “no effect”.
